For data set [1] the following is noted: given once daily; cited from earlier work.
The target of data set [2] is T1, RAC1/CDC42 Rho GTPases (Mus musculus, UniProt P63001).
T1 construct: host or cells: Alport mice (in vivo)
Particulars: Zallocchi et al. 2013; cited from earlier work.

The target of data set [3] is T2, endothelin A receptor (Mus musculus, UniProt Q61614).
T2 construct: Endothelin A receptors are expressed primarily on mesangial cells; endogenous in cells; host or cells: Alport mice (in vivo)
T2 sequence (Q61614 21-427): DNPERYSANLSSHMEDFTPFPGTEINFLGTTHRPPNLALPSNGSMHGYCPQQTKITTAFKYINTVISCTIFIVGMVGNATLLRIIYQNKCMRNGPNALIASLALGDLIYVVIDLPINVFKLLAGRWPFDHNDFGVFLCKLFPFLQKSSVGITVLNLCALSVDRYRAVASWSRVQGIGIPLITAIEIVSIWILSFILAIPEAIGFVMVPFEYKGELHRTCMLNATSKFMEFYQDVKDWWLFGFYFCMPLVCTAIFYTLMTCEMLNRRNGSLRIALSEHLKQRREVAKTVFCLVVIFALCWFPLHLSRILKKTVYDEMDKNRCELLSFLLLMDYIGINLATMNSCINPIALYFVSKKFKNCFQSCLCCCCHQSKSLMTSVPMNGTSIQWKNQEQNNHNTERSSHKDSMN
The data set can be described thus: Sitaxentan treatment of Alport mice. Type of data set: in vivo. As for the experimental part:
FIG. 1. […] Alport mice were treated with the indicated dose of Sitaxentan once daily from 2 to 7 weeks of age. Real time RT-PCR analysis for the indicated transcripts was performed on glomerular RNA.
FIGS. 3A and 3B. […] 129-Alport animals were treated with the endothelin A receptor specific blocking agent Sitaxentan from 2 weeks to 7 weeks of age.
FIGS. 4A and 4B. […] In FIG. 4A, urine was collected at the indicated timepoints and analyzed for albumin using an ELISA kit. Albumin measures were normalized to urinary creatinine. […] In FIG. 4B, BUN measures were performed on serum from 7-week-old vehicle or Sitaxentan-treated Alport mice.

The test system of data set [4] is pro-fibrotic genes, including Snail1. As to the kind of experiment: QIAGEN mouse fibrosis microarray of glomerular RNA from treated Alport mice. Type of data set: in vivo. As for the experimental part:
FIG. 2. Glomerular RNA from Alport mice treated with vehicle, Sitaxentan, or nAb #7 was analyzed using QIAGEN mouse fibrosis microarray. The data reveal that Sitaxentan (and Ambrisentan) induce a number of pro-fibrotic genes, including Snail1, which is known to play a key role in promoting renal fibrosis (Grande et al., 2015, Nat Med; 21(9):989-97). […] The data is consistent with aberrant signaling activation by classic small molecule ETAR antagonists that results in pro-fibrotic effects, defining a clear potential advantage of the biologic over small molecule approach.
Glomerular RNA from sitaxentan-treated and neutralizing antibody-treated mice was analyzed using QIAGEN mouse fibrosis microarrays.

Data set [5] has as its target T2, endothelin A receptor. To be noted: Dufek et al. 2016, cited from earlier work.
Data set [6] addresses T2, endothelin A receptor. As to the kind of experiment: Sitaxentan treatment of Alport mice. Type of data set: in vivo. Particulars: 30 mg/kg once daily.
For data set [7], the target named is T3, ACE (Mus musculus, UniProt P09470).
T3 construct: host or cells: 129 Sv autosomal Alport mice (in vivo)
T3 sequence (P09470 35-1312): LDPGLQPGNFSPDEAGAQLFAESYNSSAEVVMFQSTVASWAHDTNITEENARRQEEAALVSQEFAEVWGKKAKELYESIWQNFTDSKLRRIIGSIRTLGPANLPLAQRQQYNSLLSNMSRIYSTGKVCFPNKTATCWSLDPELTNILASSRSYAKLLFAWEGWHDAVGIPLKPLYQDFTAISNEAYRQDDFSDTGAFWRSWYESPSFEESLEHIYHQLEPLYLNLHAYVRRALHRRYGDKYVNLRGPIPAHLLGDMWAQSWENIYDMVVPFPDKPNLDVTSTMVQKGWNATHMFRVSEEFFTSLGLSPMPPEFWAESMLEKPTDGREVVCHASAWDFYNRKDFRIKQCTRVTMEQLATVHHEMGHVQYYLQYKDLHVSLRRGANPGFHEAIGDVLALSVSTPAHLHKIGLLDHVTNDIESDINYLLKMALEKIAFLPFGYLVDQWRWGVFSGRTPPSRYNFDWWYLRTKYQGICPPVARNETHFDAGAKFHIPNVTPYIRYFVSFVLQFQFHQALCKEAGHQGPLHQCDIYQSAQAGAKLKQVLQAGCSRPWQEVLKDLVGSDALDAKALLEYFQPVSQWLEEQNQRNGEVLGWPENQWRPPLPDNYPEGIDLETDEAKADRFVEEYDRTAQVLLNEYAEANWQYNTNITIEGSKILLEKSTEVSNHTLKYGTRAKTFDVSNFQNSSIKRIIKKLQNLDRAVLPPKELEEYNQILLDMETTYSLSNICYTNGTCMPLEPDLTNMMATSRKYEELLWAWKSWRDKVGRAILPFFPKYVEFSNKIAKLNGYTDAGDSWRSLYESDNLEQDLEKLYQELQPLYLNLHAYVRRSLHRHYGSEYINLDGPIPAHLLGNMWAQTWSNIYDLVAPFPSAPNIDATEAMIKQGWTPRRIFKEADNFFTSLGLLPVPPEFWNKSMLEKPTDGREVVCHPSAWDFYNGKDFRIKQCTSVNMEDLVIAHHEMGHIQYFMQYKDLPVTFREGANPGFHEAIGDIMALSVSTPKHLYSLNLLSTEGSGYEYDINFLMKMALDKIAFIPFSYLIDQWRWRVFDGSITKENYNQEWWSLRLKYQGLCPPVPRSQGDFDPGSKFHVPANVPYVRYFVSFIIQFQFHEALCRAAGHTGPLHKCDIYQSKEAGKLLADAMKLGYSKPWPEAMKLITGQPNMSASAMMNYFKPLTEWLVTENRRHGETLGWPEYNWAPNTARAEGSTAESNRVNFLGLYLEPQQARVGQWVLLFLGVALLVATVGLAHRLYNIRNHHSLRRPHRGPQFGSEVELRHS
Particulars: cited from earlier work.

Take `COC(c1ccccc1)(c1ccccc1)[C@H](Oc1nc(C)cc(C)n1)C(=O)O` [Ambrisentan]: in data set [1], the half-life in mice is 6 h.
`CCN(CC)CCCC(C)Nc1nc(C)cc(Nc2ccc3nc(C)cc(N)c3c2)n1` (stereo not drawn) [NCS 23766]: the “laminin 211 deposition in the Alport GBM” value in data set [2] is reported as “largely blocked”.
With `Cc1cc2c(cc1CC(=O)c1sccc1S(=O)(=O)Nc1onc(C)c1Cl)OCO2` [Sitaxentan], the therapeutic effect entry in data set [3] (5 mg/kg) is recorded as “little to no significant therapeutic effect”. Moreover, in data set [3] (30 mg/kg dose), the BUN result is “not statistically different from vehicle treated Alport mice”, the fibrosis scores entry was “not statistically different from vehicle treated Alport mice”, the glomerulosclerosis scores entry was “not statistically different from vehicle treated Alport mice” and the proteinuria result is listed as “not statistically different from vehicle treated Alport mice”. In addition, in data set [3] (7-week-old Alport mice), the “GBM dysmorphology (TEM)” value is on record as “normalized”. In data set [3] (7-week-old mice), the “serum BUN levels” value is on record as “reduces”. Besides, in data set [3] (129 Sv/J autosomal Alport mice), the “GBM laminin α2 deposition” value is on record as “greatly reduced”. Further, in data set [3] (albumin ELISA normalized to urinary creatinine), the “age at which measurable urinary albumin was first detected” value is recorded as 6 weeks of age. In data set [3] (increasing doses above 10 mg/kg), the “renal disease (renotoxicity)” value is given as “exacerbated renal disease”. Further, the “infiltration of glomerular capillaries with mesangial filopodia” value in data set [3] (integrin α8 immunopositivity) is given as “greatly reduced”. Further, the Alport pathogenesis entry in data set [3] (low dose 10 mg/kg once daily, 2 to 7 weeks of age) was “ameliorated Alport pathogenesis”. In addition, the “glomerular mRNA expression of cytokines and metalloproteinases (MMP-9, MMP-10, MMP-12, MCP-1, IL-6)” value in data set [3] (real time RT-PCR) was “reduced to near control levels”. In data set [3] (treated 2 to 7 weeks of age), the “% glomerulosclerosis” value is listed as “reduced to near control levels”; the fibrosis scores entry is reported as “reduced to near control levels”; the “onset and progression of proteinuria” value is reported as “significantly delays”. Besides, the “induction of pro-fibrotic / pro-inflammatory genes incl. Snail1 in glomeruli” value in data set [4] is “markedly inducing”. In addition, the blood pressure result in data set [5] (129 Sv autosomal Alport mouse model) is “no effect on blood pressure”. Also, the increase in lifespan in data set [5] (Alport mice) is 20%. Also, the “GBM damage vs vehicle-treated Alport mice” value in data set [5] is “significantly reduced GBM damage”. In addition, the lifespan vs vehicle entry in data set [6] was “shorter lifespan than vehicle treated Alport mice”. The half-life in mice in data set [1] is 6 h.
Turning to `CCOC(=O)[C@H](CCc1ccccc1)N[C@@H](C)C(=O)N1[C@H](C(=O)O)C[C@@H]2CCC[C@@H]21` [ramipril], in data set [7] (Gross et al. 2003), the “degree of GBM damage” value was “comparable to untreated Alport mice”. Besides, the lifespan entry in data set [7] (administered before onset of proteinuria, Gross et al. 2003) is given as “doubled”. In addition, the blood pressure entry in data set [7] (mouse, in vivo) was “reduces blood pressure”.
